Source: ChEMBL document CHEMBL3885861, “Open TG-GATES”

Organism: Rattus norvegicus
Assay: Open TG-GATES - Regimen: Single
Assay type: toxicity, organism-based, Sprague-Dawley
Design: regimen Single, gender Male, age 6 weeks
Conditions: in vivo, po, 0 mg/kg, route gavage, dose level Control; for APTT / Bas / Eos / Fbg / Hb / Ht / Lym / MCH / MCHC / MCV / Mono / Neu / PT / Plat / RBC / Ret / WBC: tissue Blood; for KIDNEY_L / KIDNEY_R / KIDNEY_TOTAL: tissue Kidney; for LIVER: tissue Liver; for A/G / ALP / ALT / AST / BUN / CRE / Ca / Cl / DBIL / GLC / IP / K / LDH / Na / PL / RALB / TBIL / TC / TG / TP / gamma-GTP: tissue Plasma

SMILES: CN1C(C(=O)Nc2ccccn2)=C(O)c2sc(Cl)cc2S1(=O)=O [LORNOXICAM]
- TERMINAL_BW (3 h): 223 g
- APTT (3 h): 20 s
- Bas (3 h): 1%
- Eos (3 h): 1.4%
- Fbg (3 h): 213.2 mg/dL
- Hb (3 h): 13.4 g/dL
- Ht (3 h): 39.7%
- Lym (3 h): 78.8%
- MCH (3 h): 21 pg
- MCHC (3 h): 33.8%
- MCV (3 h): 62.2 fL
- Mono (3 h): 2.8%
- Neu (3 h): 16.4%
- PT (3 h): 11.9 s
- Plat (3 h): 135.7 x10_4/uL
- RBC (3 h): 638 x10_4/ul
- Ret (3 h): 6.8%
- WBC (3 h): 93 x10_2/uL
- KIDNEY_L (3 h): 1 g
- KIDNEY_R (3 h): 1 g
- KIDNEY_TOTAL (3 h): 2 g
- LIVER (3 h): 10.1 g
- A/G (3 h): 1.7
- ALP (3 h): 1010.4 IU/L
- ALT (3 h): 36.2 IU/L
- AST (3 h): 73 IU/L
- BUN (3 h): 11.8 mg/dL
- CRE (3 h): 0.4 mg/dL
- Ca (3 h): 10.5 mg/dL
- Cl (3 h): 103.4 meq/L
- DBIL (3 h): 0.076 mg/dL
- GLC (3 h): 197.2 mg/dL
- IP (3 h): 8.6 mg/dL
- K (3 h): 3.7 meq/L
- LDH (3 h): 168 IU/L
- Na (3 h): 141.4 meq/L
- PL (3 h): 133.4 mg/dL
- RALB (3 h): 3.5 g/dL
- TBIL (3 h): 0.1 mg/dL
- TC (3 h): 71.2 mg/dL
- TG (3 h): 80 mg/dL
- TP (3 h): 5.5 g/dL
- gamma-GTP (3 h): 1.4 IU/L
- TERMINAL_BW (6 h): 219.8 g
- APTT (6 h): 19.8 s
- Bas (6 h): 0.8%
- Eos (6 h): 1%
- Fbg (6 h): 221.2 mg/dL
- Hb (6 h): 13.2 g/dL
- Ht (6 h): 39.3%
- Lym (6 h): 81.2%
- MCH (6 h): 20.9 pg
- MCHC (6 h): 33.6%
- MCV (6 h): 62.1 fL
- Mono (6 h): 2.6%
- Neu (6 h): 14.2%
- PT (6 h): 12 s
- Plat (6 h): 119.7 x10_4/uL
- RBC (6 h): 632.4 x10_4/ul
- Ret (6 h): 7.2%
- WBC (6 h): 109.1 x10_2/uL
- KIDNEY_L (6 h): 0.9 g
- KIDNEY_R (6 h): 1 g
- KIDNEY_TOTAL (6 h): 1.9 g
- LIVER (6 h): 9.6 g
- A/G (6 h): 1.6
- ALP (6 h): 765.4 IU/L
- ALT (6 h): 33.4 IU/L
- AST (6 h): 68.8 IU/L
- BUN (6 h): 11 mg/dL
- CRE (6 h): 0.4 mg/dL
- Ca (6 h): 10.4 mg/dL
- Cl (6 h): 103 meq/L
- DBIL (6 h): 0.066 mg/dL
- GLC (6 h): 196.8 mg/dL
- IP (6 h): 9.1 mg/dL
- K (6 h): 3.9 meq/L
- LDH (6 h): 209.2 IU/L
- Na (6 h): 140.8 meq/L
- PL (6 h): 146 mg/dL
- RALB (6 h): 3.4 g/dL
- TBIL (6 h): 0.1 mg/dL
- TC (6 h): 84.8 mg/dL
- TG (6 h): 64.8 mg/dL
- TP (6 h): 5.6 g/dL
- gamma-GTP (6 h): 0.8 IU/L
- TERMINAL_BW (9 h): 218.6 g
- APTT (9 h): 20.3 s
- Bas (9 h): 0.8%
- Eos (9 h): 0.8%
- Fbg (9 h): 230.6 mg/dL
- Hb (9 h): 13.3 g/dL
- Ht (9 h): 39.8%
- Lym (9 h): 74.4%
- MCH (9 h): 20.9 pg
- MCHC (9 h): 33.4%
- MCV (9 h): 62.7 fL
- Mono (9 h): 3.2%
- Neu (9 h): 20.4%
- PT (9 h): 12.5 s
- Plat (9 h): 119.2 x10_4/uL
- RBC (9 h): 634.2 x10_4/ul
- Ret (9 h): 7.6%
- WBC (9 h): 126.9 x10_2/uL
- KIDNEY_L (9 h): 1 g
- KIDNEY_R (9 h): 1 g
- KIDNEY_TOTAL (9 h): 1.9 g
- LIVER (9 h): 9.3 g
- A/G (9 h): 1.7
- ALP (9 h): 766.8 IU/L
- ALT (9 h): 33.2 IU/L
- AST (9 h): 65.4 IU/L
- BUN (9 h): 9.8 mg/dL
- CRE (9 h): 0.3 mg/dL
- Ca (9 h): 10.5 mg/dL
- Cl (9 h): 103.6 meq/L
- DBIL (9 h): 0.076 mg/dL
- GLC (9 h): 197.8 mg/dL
- IP (9 h): 9.6 mg/dL
- K (9 h): 3.8 meq/L
- LDH (9 h): 162.2 IU/L
- Na (9 h): 142.2 meq/L
- PL (9 h): 136.8 mg/dL
- RALB (9 h): 3.5 g/dL
- TBIL (9 h): 0.1 mg/dL
- TC (9 h): 75.2 mg/dL
- TG (9 h): 60.6 mg/dL
- TP (9 h): 5.6 g/dL
- gamma-GTP (9 h): 1.2 IU/L
- TERMINAL_BW (24 h): 238.4 g
- APTT (24 h): 19.9 s
- Bas (24 h): 0.2%
- Eos (24 h): 1%
- Fbg (24 h): 225.8 mg/dL
- Hb (24 h): 13.5 g/dL
- Ht (24 h): 40.7%
- Lym (24 h): 80%
- MCH (24 h): 20.9 pg
- MCHC (24 h): 33.3%
- MCV (24 h): 62.6 fL
- Mono (24 h): 3.2%
- Neu (24 h): 15.2%
- PT (24 h): 11.6 s
- Plat (24 h): 133.9 x10_4/uL
- RBC (24 h): 649.4 x10_4/ul
- Ret (24 h): 6.8%
- WBC (24 h): 101.7 x10_2/uL
- KIDNEY_L (24 h): 1 g
- KIDNEY_R (24 h): 1 g
- KIDNEY_TOTAL (24 h): 2 g
- LIVER (24 h): 11.3 g
- A/G (24 h): 1.6
- ALP (24 h): 874.6 IU/L
- ALT (24 h): 35.2 IU/L
- AST (24 h): 65.8 IU/L
- BUN (24 h): 14.8 mg/dL
- CRE (24 h): 0.4 mg/dL
- Ca (24 h): 10.8 mg/dL
- Cl (24 h): 103.8 meq/L
- DBIL (24 h): 0.1 mg/dL
- GLC (24 h): 218 mg/dL
- IP (24 h): 7.3 mg/dL
- K (24 h): 4 meq/L
- LDH (24 h): 177.6 IU/L
- Na (24 h): 141.4 meq/L
- PL (24 h): 138.4 mg/dL
- RALB (24 h): 3.5 g/dL
- TBIL (24 h): 0.2 mg/dL
- TC (24 h): 69.2 mg/dL
- TG (24 h): 101.2 mg/dL
- TP (24 h): 5.6 g/dL
- gamma-GTP (24 h): 1 IU/L
